The text below walks through data of patent US20180369195A1, “COMBINATION THERAPY FOR TREATMENT OF MELANOMA” (The Regents of the University of California, priority 2015, published 2018).

Test [1] deals with multiple melanoma cell lines. The experiment in a line: Flow cytometry analysis of DNA content, multiple melanoma cell lines. Type of test: cell-based, human. The method, then: Melanoma cells were treated with the indicated concentrations of 1-benzyl I3C in triplicates every 24 hours and harvested at the end of 24, 48 or 72 hours for cell cycle analysis. The DNA content of propidium iodide stained nuclei from harvested cells were determined by flow cytometry. Briefly, cells were hypotonically lysed in […] of DNA staining solution (0.5 mg/mL propidium iodide, 0.1% sodium citrate, and 0.05% Triton-X 100). Emitted fluorescence from the nuclear of wavelengths more than 585 nm was measured with a Coulter Elite instrument with laser output adjusted to deliver 15 mW at 488 nm. Ten thousand nuclei were analyzed from each sample at a rate of 300-500 nuclei/second. The percentage of cells within the G1, S, and G2/M phases of the cell cycle were determined by analysis with the Multicycle computer program provided by Phoenix Flow Systems in the Cancer Research Laboratory Microchemical Facility of the University of California, Berkeley.
A general note: Flow cytometry measures light scatter and fluorescence of single cells or particles in a stream.

In the next test the test system is β-catenin. Briefly: Western blot of β-catenin. Conditions: G-361, DM-738, SK-MEL-2 cells, 20 μM 1-benzyl I3C, 24, 48 and 72 hours. It counts as cell-based, human. The source says: The western blots employed the following primary antibodies: mouse anti-MITF-M (Thermo-scientific), mouse anti-HSP 90 (BD Biosciences), mouse anti-CDK2, rabbit anti-CDK4, rabbit anti-CDK-6, mouse anti-rabbit BRAF, goat anti-LEF-1, rabbit anti-AXIN, mouse anti-BCL2, (Santa Cruz), rabbit anti-P21, mouse anti-Cyclin D1, rabbit anti-MEK-p, rabbit anti-MEK1/2, rabbit anti-GSK3β rabbit anti-LRP6, rabbit anti-LRP6-phospho (Cell signaling), mouse anti-β-catenin (Invitrogen).

In a further test the test system is canonical Wnt signaling. The experiment in a line: TOP Flash Wnt reporter assay in G361 cells. Type of test: cell-based, human. The method, then:
Murine fibroblast L cells stably transfected with a construct expressing high levels of human Wnt3A were used. The cells were grown in DMEM containing 4.5 g/L Glucose, 114 mg/L Sodium Pyruvate, and 2 mM L-glutamine, supplemented with 10% fetal bovine serum (Gemini Bio Products), 2 mM L-glutamine, and 2.5 ml of 10,000 U/ml penicillin/streptomycin mixture (Gibco, Life Technologies). Conditioned media was harvested in two batches, once during routine media change after 2 days of seeding the cells and once more when the plates were confluent. The cells were trypsinized as described earlier using 0.025% trypsin (Lonza) and pelleting the cells by a spin at 4000 rpm for 5 minutes and aspirating and filtering the supernatant through a 0.2 micron filter to obtain the conditioned media. The two batches of conditioned media were mixed 1:1 and stored in aliquots at −80° C. for future use.
The TOPflash/FOPflash (Millipore) reporter assay was performed on G361 cells to assess the effect of 1-benzyl I3C on β-catenin driven Wnt transcriptional activity. TOPflash is a TCF/LEF responsive luciferase construct encoding the firefly luciferase reporter under the control of a minimal (m) CMV promoter and tandem repeats of a TCF/LEF transcriptional response element (TRE). FOPflash is a similar construct with the LEF-1 binding site mutated which serves as the negative control. G361 cells were cultured to approximately 80% confluency in a 6 well clear bottom plate (Nunc). The TOPflash/FOPflash construct was transfected using Superfect Transfection Reagent (Qiagen.) according to the manufactures instructions. […] 20 μl of supernatant from each sample was combined with 100 μl luciferase substrate (Promega) and emitted fluorescence was measured using luminometer, Lumat LB 9507 (EG&G Berthold) and the relative light units (RLU) were recorded. The RLU/μg for each sample was calculated by dividing the data obtained with their specific protein concentration determined by a Bradford assay using 1× BioRad Protein Assay reagent and measuring O.D at 595 nm. […]

Test [2] relates to BRN2. The experiment in a line: Immunofluorescence of BRN2 localization. Type of test: cell-based, human. The conditions noted are these: G-361 cells, 200 μM I3C, 48 hours.
The subject of test [3] is BRN2. Briefly: Chromatin immunoprecipitation, BRN2 at MITF-M promoter. Type of test: cell-based, human. The conditions noted are these: G-361 cells, 200 μM I3C, 48 hours. The method, then: […] Proteins were crosslinked to DNA by the addition of formaldehyde at 2.5% of the final concentration for 5 minutes at room temperature to cultured cells. Fixation was quenched with glycine for a final concentration of 125 mmol/1 for 5 minutes. Harvested cells were sonicated and the chromatin was immunoprecipitated overnight and 15 μl of mouse anti-Brn2 antibodies (Santa Cruz Biotechnology) was added to the cell lysates to immunoprecipitate the chromatin-bound Brn2 protein. A fragment of the MITF-M promoter (−170+120) containing the BRN2 binding site (−53 to −27) was amplified using the primers—MITF-M Forward: 5′-CGTCACTTAAAAAGGTACCTTTATATTTATG-3′ (SEQ ID NO:7) MITF-M Reverse: 5′-TGT TTTAGC TAGCACCAATCCAGTGAGAGACGG-3′ (SEQ ID NO:8) by cycling 36 times (95° C., 30 s/52° C. 30 s/72° C., 30 s) with a 72° C., 10 min extension. The PCR products were electrophoretically fractionated on a 1.5% agarose gel and visualized using a transilluminator.

Another test concerns phosphorylated Erk/MAPK. The experiment in a line: Western blot of phosphorylated Erk/MAPK. It counts as cell-based, human. The conditions noted are these: 200 μM I3C. (Immunoblotting shows a protein as a band on a membrane.)
The next test deals with T1, wild type BRAF (Homo sapiens, UniProt P15056).
T1 construct: Wild type BRAF was immunoprecipitated from SK-MEL-2 melanoma cells; endogenous in cells; host or cells: SK-MEL-2 human melanoma cells (ATCC)
Briefly: In vitro BRAF kinase assay, in-vitro treated wild type BRAF from SK-MEL-2 cells. It counts as biochemical. Conditions: pre-incubated 2 hours; 200 μM or 400 μM I3C, 10 μM Vemurafenib. The method, then: BRAF was pulled down from the cell lysates using anti-BRAF antibodies bound to protein G-coupled Sepharose beads, while IgG was used as a negative control. Post-immunoprecipitation supernatants were probed with anti BRAF antibody by western blots to determine pull-down efficiency. […] The reactions were terminated by adding 4× sodium dodecyl sulfate (SDS) sample buffer and boiling the mixture at 100° C. for 5 min. The samples were then electrophoresed, immunoblotted and probed for relative protein levels of phosphorylated MEK and total MEK to assess the kinase activity of the immunoprecipitated BRAF.

In test [4] the test system is cultured human cancer cells. The conditions noted are these: Wong et al. 1997; cited from earlier work.

T1 sequence (P15056 whole entry): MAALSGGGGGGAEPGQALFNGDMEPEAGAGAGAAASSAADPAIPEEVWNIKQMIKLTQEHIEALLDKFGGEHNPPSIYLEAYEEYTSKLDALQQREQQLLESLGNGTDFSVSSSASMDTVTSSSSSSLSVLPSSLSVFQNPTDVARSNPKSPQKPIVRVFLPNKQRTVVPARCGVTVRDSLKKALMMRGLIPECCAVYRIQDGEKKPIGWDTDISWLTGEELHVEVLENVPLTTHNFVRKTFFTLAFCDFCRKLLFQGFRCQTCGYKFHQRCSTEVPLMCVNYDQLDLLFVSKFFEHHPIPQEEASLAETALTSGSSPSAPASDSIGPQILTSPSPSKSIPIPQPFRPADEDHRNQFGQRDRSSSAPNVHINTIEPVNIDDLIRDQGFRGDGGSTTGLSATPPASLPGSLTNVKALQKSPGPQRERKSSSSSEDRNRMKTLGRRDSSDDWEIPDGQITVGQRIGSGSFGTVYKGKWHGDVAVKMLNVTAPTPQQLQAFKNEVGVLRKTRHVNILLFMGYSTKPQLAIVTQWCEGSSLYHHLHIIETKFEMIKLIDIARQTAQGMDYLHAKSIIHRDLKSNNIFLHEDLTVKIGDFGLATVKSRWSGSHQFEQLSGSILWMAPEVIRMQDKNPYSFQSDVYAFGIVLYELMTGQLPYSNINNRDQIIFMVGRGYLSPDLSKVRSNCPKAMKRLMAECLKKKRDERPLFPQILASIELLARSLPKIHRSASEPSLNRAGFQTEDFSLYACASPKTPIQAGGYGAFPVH
Description for phosphorylated Erk/MAPK: Western Blot analyses of samples electrophoretically fractionated on 12% acrylamide gels were carried out as previously described (Wagle et al., J. Clin. Oncol. 2011. 29(22):3085-3096; Nguyen et al., Chem. Biol. Interact. 2010. 186(3):255-266). […] The western blots employed the following primary antibodies: mouse anti-MITF-M (Thermo-scientific), mouse anti-HSP 90 (BD Biosciences), mouse anti-CDK2, rabbit anti-CDK4, rabbit anti-CDK-6, mouse anti-rabbit BRAF, goat anti-LEF-1, rabbit anti-AXIN, mouse anti-BCL2, (Santa Cruz), rabbit anti-P21, mouse anti-Cyclin D1, rabbit anti-MEK-p, rabbit anti-MEK1/2, rabbit anti-GSK3β rabbit anti-LRP6, rabbit anti-LRP6-phospho (Cell signaling), mouse anti-β-catenin (Invitrogen).

As to `OCc1cn(Cc2ccccc2)c2ccccc12` [1-benzyl I3C, 1-benzyl indole-3-carbinol], in test [1] (20 μM 1-benzyl I3C, all the cell lines), the “time to significant G1 cell cycle arrest” value is at most 24 h. The “G1 cell cycle arrest” value in test [1] (varying doses of 1-benzyl I3C, 48 hours) was “significant G1 cell cycle arrest”. In the test on β-catenin, the β-catenin protein levels entry was “significantly downregulated”. For the same compound, the “Wnt signaling (TOP luciferase activity)” value in the test with canonical Wnt signaling (G361 cells in Wnt conditioned media, 1-benzyl I3C 24 hours) is recorded as “Wnt signaling was significantly attenuated”. Besides, the “1-benzyl I3C induced inhibition of luciferase activity, constitutively active LRP6 transfected cells” value in the test with canonical Wnt signaling (G361 cells, 1-benzyl I3C 24 hours) is reported as “significantly rescued”. Besides, the “Wnt signaling (luciferase activity), wild-type vector transfected cells” value with canonical Wnt signaling (G361 cells, 1-benzyl I3C 24 hours vs vehicle) is reported as “significantly inhibited the Wnt signaling”.

For the compound `OCc1c[nH]c2ccccc12` [I3C, indole-3-carbinol], the “nuclear localization of BRN2” value in the test with BRN2 [2] is “disrupted the nuclear localization of Brn2”. For the same compound, the “endogenous BRN2 binding to the MITF-M promoter” value with BRN2 [3] is “significantly down regulated endogenous BRN-2 interactions with this promoter”. In addition, the “phosphorylated Erk/MAPK levels” value was “strongly down regulated” in the test on phosphorylated Erk/MAPK (G-361 and DM738 cells, 72 hour time course); “down regulated” in the test on phosphorylated Erk/MAPK (G-361 cells, 48 hours, 10 μM Vemurafenib or 10 μM U0126); “no effect” with phosphorylated Erk/MAPK (SK-MEL-2 cells, 72 hour time course). Further, the “wild type BRAF enzymatic activity, direct in vitro incubation” value on wild type BRAF is on record as “no effect”. Also, the “optimal concentration for the anti-proliferative effect” value in test [4] was 200 µM.
